Series [1] concerns BDNF-induced nuclear Arc expression in primary cortical neurons. Kind of series: Chemogenomic screen: high-content image-based assay of BDNF-induced nuclear Arc expression (96-well). It counts as cell-based, mouse. The procedure, abridged: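 DIV13 mouse primary cortical neurons (30,000 cells/well) are treated with compound at 16.7 µM and BDNF, in three biological replicates. Arc and acetyl-H3K9 are immunostained and imaged at ×40, and nuclear Arc signal is quantified automatically using acetyl-H3K9 as the nuclear mask.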

Series [2] relates to Arc protein in dentate gyrus. Kind of series: Arc immunohistochemistry in dentate gyrus after intraperitoneal injection. Format: in vivo, mouse. The note with it: 30 mg kg−1 i.p., 3 h. As for the experimental part: Male mice (C57BL/6 strain) were received as 6-weeks old and habituated to their home cage as trios for 2 weeks before conducting the experiments. During the habituation time period, mice were kept on a light–dark cycle with minimal disruption and unrestricted access to food and water. On experiment day, mice from the same cage were taken and randomly subjected to intraperitoneal injection of vehicle (25% Kolliphor EL (Sigma-Aldrich, C5135), 10% DMSO) or AK-7 (30 mg kg^−1) solution and immediately placed back in their home cage or transferred to a novel environment. The novel environment consisted of a large cage placed in a different room with new bedding, food, as well as multiple objects like tunnel, running wheel, igloo, and aspen labyrinth that the mice could freely explore. About 3 h after the injection procedure, mice were rapidly anesthetized and killed by decapitation. Finally, brain tissues were harvested and flash frozen in a dry ice/isopentane bath and stored at −80 °C. All experiments were approved by the Animal Care and Use Committee of the Massachusetts General Hospital and carried out according to institutional guidelines.
Coronal sections containing the hippocampus from all animals were cut from the frozen blocks at a thickness of 20 µm with a CM3050 cryostat (Leica, Nussloch, Germany). […]
The following approach was adopted to quantify the number of Arc-positive cell bodies and average acetyl-H3K9 immunostaining pixel intensity in dentate gyrus. First, complete dentate gyrus overlapping grayscale images of DAPI fluorescence and Arc or acetyl-H3K9 immunostaining were collected using a ×20 objective and Nikon Eclipse 90i upright microscope equipped with a motorized stage and image stitching capability. Second, the boundary of the dentate gyrus based on the DAPI fluorescence was determined in each image set with the ImageJ wand tool. Finally, this information was used for image segmentation and quantification of Arc-positive cell bodies or average acetyl-H3K9 immunostaining pixel intensity within each dentate gyrus images. […]

Details of series [3]: method as in PMID 21370928, PMID 23200855. The note with it: ref [34],[42]; cited from earlier work.
For series [4], the system named is Arc puncta in dendrites of primary cortical neurons. In words: Arc puncta along Map2-labeled dendrites (immunocytochemistry). Format: cell-based, mouse. The note with it: 16.7 µM with BDNF, vs untreated and BDNF alone; for BDNF: BDNF alone vs untreated. The source says: Chemical structure of each compound is presented on top. b Graphs show mean (n = 5) Arc/β-actin ratio (±SEM) for cells treated as in a. […] Tukey’s HSD post hoc test, *p < 0.05; **p < 0.01, ***p < 0.005; ****p < 0.0001. […] Representative captures of DIV14 mouse primary cortical neurons from each experimental condition co-immunostained for Arc (red fluorophore) and Map2 (green fluorophore). White arrowheads show examples of discrete Arc puncta. […] Tukey’s HSD post hoc test, *p < 0.05; ***p < 0.005; ****p < 0.0001
Indirect immunofluorescence detection of antigens was carried out using cortical neurons cultured on poly-L-lysine/laminin-coated coverslips in 24-well plates at a density of 0.1 × 10^7 per well. After experimental treatment, cells were washed twice with PBS and fixed for 30 min at room temperature with 4% paraformaldehyde in PBS. After fixation, cells were washed twice with PBS, permeabilized with PBST (PBS + 0.25% Triton X-100) for 20 min, blocked in blocking solution (PBS + 5% normal goat serum) for another 30 min, and finally incubated overnight at 4 °C with the first primary antibody in blocking solution. The next day, coverslips were extensively washed with PBS and incubated for 2 h at room temperature in the appropriate fluorophore-conjugated secondary antibody solution (Alexa 488- or Alexa 594-conjugated secondary antibody (Molecular Probes, Invitrogen) in blocking solution). After washing with PBS, the coverslips were incubated again overnight in primary antibody solution for the second antigen, and the procedure for conjugation of the fluorophore-conjugated secondary antibody was repeated as above. Finally, cell nuclei were counterstained with 4′,6-diamidino-2-phenylindole (DAPI), and coverslips were mounted on glass slides with ProLong Antifade reagent (Invitrogen).
Quantification of surface GluA1 puncta was performed according to the following strategy. First, overlapping digital images of GluA1 and Map2 immunostainings were collected using a Zeiss AxioObserver Z1 inverted microscope and ×63 oil immersion objective. Second, thresholding and segmentation based on the Map2 images was used to remove GluA1 signals outside of dendritic processes. Importantly, the same background/foreground cutoff threshold was used for images of all experimental conditions. Third, the length of dendrites for each image set was measured and recorded. Finally, distinct GluA1 foreground objects along dendrites >5 pixels were counted using the particle analysis tool in ImageJ and presented as the average number of GluA1 puncta per µm of dendrite length for each experimental condition.

The next series has as its target T1, HDAC6 (Homo sapiens, UniProt Q9UBN7).
T1 construct: purchased BPS Bioscience (San Diego, CA), contract assay service
In words: Biochemical HDAC assay (BPS Bioscience), HDAC6. The conditions noted are these: 25 µM.

T1 sequence (Q9UBN7 whole entry): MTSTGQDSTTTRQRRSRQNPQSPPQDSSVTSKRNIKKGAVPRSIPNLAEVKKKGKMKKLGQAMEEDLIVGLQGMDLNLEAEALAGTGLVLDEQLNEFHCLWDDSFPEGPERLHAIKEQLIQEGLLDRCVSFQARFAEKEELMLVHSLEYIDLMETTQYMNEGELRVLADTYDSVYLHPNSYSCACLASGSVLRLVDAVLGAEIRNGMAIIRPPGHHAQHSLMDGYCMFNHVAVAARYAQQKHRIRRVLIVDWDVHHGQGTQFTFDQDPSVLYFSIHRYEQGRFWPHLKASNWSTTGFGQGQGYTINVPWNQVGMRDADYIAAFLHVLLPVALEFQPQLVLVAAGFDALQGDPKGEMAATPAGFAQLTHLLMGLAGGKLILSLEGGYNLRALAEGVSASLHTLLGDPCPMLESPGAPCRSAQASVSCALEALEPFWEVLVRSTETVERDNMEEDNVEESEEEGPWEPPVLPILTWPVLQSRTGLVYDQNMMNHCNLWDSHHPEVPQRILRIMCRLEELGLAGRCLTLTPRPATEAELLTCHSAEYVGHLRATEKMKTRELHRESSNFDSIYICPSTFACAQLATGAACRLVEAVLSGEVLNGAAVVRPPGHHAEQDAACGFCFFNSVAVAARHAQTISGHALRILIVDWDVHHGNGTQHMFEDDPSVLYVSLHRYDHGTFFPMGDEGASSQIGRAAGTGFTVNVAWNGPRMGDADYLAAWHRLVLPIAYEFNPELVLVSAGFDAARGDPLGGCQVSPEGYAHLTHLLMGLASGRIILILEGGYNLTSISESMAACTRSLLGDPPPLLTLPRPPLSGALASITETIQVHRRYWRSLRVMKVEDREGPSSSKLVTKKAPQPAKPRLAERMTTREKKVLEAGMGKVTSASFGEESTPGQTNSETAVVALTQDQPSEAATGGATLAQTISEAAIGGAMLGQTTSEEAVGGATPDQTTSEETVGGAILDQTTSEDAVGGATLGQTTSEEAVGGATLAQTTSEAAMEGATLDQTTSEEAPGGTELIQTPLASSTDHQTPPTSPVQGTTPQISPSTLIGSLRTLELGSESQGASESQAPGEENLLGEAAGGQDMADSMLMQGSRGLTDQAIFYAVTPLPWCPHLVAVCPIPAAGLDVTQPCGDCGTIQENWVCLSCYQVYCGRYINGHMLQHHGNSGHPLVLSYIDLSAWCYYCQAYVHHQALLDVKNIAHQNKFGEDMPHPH

Regarding `O=C(Nc1cccc(Br)c1)c1cccc(S(=O)(=O)N2CCCCCC2)c1` [AK-7], the “rank among potentiators of BDNF-induced nuclear Arc expression in screen” value in series [1] (16.7 µM, three biological replicates) was “first”. In series [1] (chemogenomic (SMART) screen, BDNF-induced nuclear Arc expression, primary cortical neurons, BDNF control 19.5), the “Percentage of cell with nuclear Arc immunostaining above 2σ threshold” value turned out to be 61.6%. Further, the “Fold-change — Normalized to DMSO control (BDNF)” value in series [1] (nuclear Arc-positive cells relative to DMSO + BDNF control, negative values = decrease) is on record as 3.2 fold. Moreover, in series [2] (home cage), the “Arc immunofluorescence signal intensity in cell bodies vs vehicle” value is given as “not statistically different” and the “number of neurons with prominent Arc immunostaining in dentate gyrus vs vehicle” value is listed as “more than eight times”. Further, the “number of Arc immunopositive cell bodies in dentate gyrus vs vehicle” value in series [2] (novel environment) is listed as “did not led to more Arc immunopositive cell bodies”. Moreover, the “blood–brain barrier crossing” value in series [3] is reported as “can efficiently cross the blood–brain barrier”. Also, the “number of Arc puncta in dendritic projections” value in series [4] is given as “significantly greater number of Arc puncta”. For the same compound, the “inhibitory activity toward HDAC6” value on HDAC6 is recorded as “failed to show any inhibitory activity”.

(Values after PMC5698418 (Nature Communications, 2017).)
